Measurements as given in patent publication US6896895B2, “Carotenoid esters, carotenoid-enriched feeds, and methods of pigmenting foods and foodstuffs” (DSM IP Assets B.V., priority 2000, dated 2005).

Tested on: skin and shanks of broilers
Assay: Reflectance colorimetry and visual classification of skin and shanks of broilers
Assay type: in vivo, broiler chickens (Ross 308, Ross 508)
Design: key to Shanks Visual Classification / Skin Visual Classification: −; (+); +; ++ = good color; o = orange
Conditions: for Shanks Chroma C*ab % of Controls / Shanks Color Hue h*ab % of Controls / Skin Chroma C*ab % of Controls / Skin Color Hue h*ab % of Controls / Shanks Chroma C*ab Value / Shanks Color Hue h*ab Value / Shanks Visual Classification / Skin Chroma C*ab Value / Skin Color Hue h*ab Value / Skin Visual Classification: dry carcasses; for chroma C*a*b* values in the skin and in the shanks / color hue h*a*b* in the skin and in the shanks / effectiveness in terms of concentration in the skin, and color intensity (chroma C*a*b*) in the skin and shanks: versus the control
Summary of the method: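 Ross broilers were fed a low-carotenoid basal diet (<2 mg xanthophylls/kg), then received pigment-supplemented diet for three weeks and were slaughtered on day 44. Back-skin colour (mean of three points) and shank colour (single reading) were measured by Minolta chromameter (D65, 0°) and reported as CIE L*a*b*, h* and C*, averaged over ten birds (5 male, 5 female).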

[1] = trial MC-11/99, 13.33 mg/kg feed

CC(C=CC=C(C)C=CC1=C(C)CCCC1(C)C)=CC=CC=C(C)C=CC=C(C)C(=O)OC(C)(C)C [compound (18), tert. butyl beta-apo-8′-carotenoate]
Shanks Chroma C*ab % of Controls (average over doses, Table 5): 113%
Shanks Color Hue h*ab % of Controls (average over doses, Table 5): 100%
Skin Chroma C*ab % of Controls (average over doses, Table 5): 115%
Skin Color Hue h*ab % of Controls (average over doses, Table 5): 105%
Shanks Chroma C*ab % of Controls (trial MC-24/99, 20 mg/kg feed): 114%
Shanks Chroma C*ab Value (trial MC-24/99, 20 mg/kg feed): 63
Shanks Color Hue h*ab % of Controls (trial MC-24/99, 20 mg/kg feed): 100%
Shanks Color Hue h*ab Value (trial MC-24/99, 20 mg/kg feed): 84
Shanks Visual Classification (trial MC-24/99, 20 mg/kg feed): +
Skin Chroma C*ab % of Controls (trial MC-24/99, 20 mg/kg feed): 116%
Skin Chroma C*ab Value (trial MC-24/99, 20 mg/kg feed): 38
Skin Color Hue h*ab % of Controls (trial MC-24/99, 20 mg/kg feed): 107%
Skin Color Hue h*ab Value (trial MC-24/99, 20 mg/kg feed): 81
Skin Visual Classification (trial MC-24/99, 20 mg/kg feed): +
Shanks Chroma C*ab % of Controls (trial MC-24/99, 30 mg/kg feed): 111%
Shanks Chroma C*ab Value (trial MC-24/99, 30 mg/kg feed): 70
Shanks Color Hue h*ab % of Controls (trial MC-24/99, 30 mg/kg feed): 99%
Shanks Color Hue h*ab Value (trial MC-24/99, 30 mg/kg feed): 82
Shanks Visual Classification (trial MC-24/99, 30 mg/kg feed): ++
Skin Chroma C*ab % of Controls (trial MC-24/99, 30 mg/kg feed): 113%
Skin Chroma C*ab Value (trial MC-24/99, 30 mg/kg feed): 41
Skin Color Hue h*ab % of Controls (trial MC-24/99, 30 mg/kg feed): 102%
Skin Color Hue h*ab Value (trial MC-24/99, 30 mg/kg feed): 80
Skin Visual Classification (trial MC-24/99, 30 mg/kg feed): ++
chroma C*a*b* values in the skin and in the shanks: substantially enhanced
color hue h*a*b* in the skin and in the shanks: not significantly changed
effectiveness in terms of concentration in the skin, and color intensity (chroma C*a*b*) in the skin and shanks: significantly more effective

CCCC(C)OC(=O)C(C)=CC=CC(C)=CC=CC=C(C)C=CC=C(C)C=CC1=C(C)CCCC1(C)C (stereo not drawn) [compound (19), 2-pentyl beta-apo-8′-carotenoate]
Shanks Chroma C*ab % of Controls (average over doses, Table 5): 105%
Shanks Color Hue h*ab % of Controls (average over doses, Table 5): 98%
Skin Chroma C*ab % of Controls (average over doses, Table 5): 106%
Skin Color Hue h*ab % of Controls (average over doses, Table 5): 97%
Shanks Chroma C*ab % of Controls (trial MC-24/99, 20 mg/kg feed): 108%
Shanks Chroma C*ab Value (trial MC-24/99, 20 mg/kg feed): 60
Shanks Color Hue h*ab % of Controls (trial MC-24/99, 20 mg/kg feed): 98%
Shanks Color Hue h*ab Value (trial MC-24/99, 20 mg/kg feed): 82
Shanks Visual Classification (trial MC-24/99, 20 mg/kg feed): +
Skin Chroma C*ab % of Controls (trial MC-24/99, 20 mg/kg feed): 106%
Skin Chroma C*ab Value (trial MC-24/99, 20 mg/kg feed): 34
Skin Color Hue h*ab % of Controls (trial MC-24/99, 20 mg/kg feed): 96%
Skin Color Hue h*ab Value (trial MC-24/99, 20 mg/kg feed): 73
Skin Visual Classification (trial MC-24/99, 20 mg/kg feed): +
Shanks Chroma C*ab % of Controls (trial MC-24/99, 30 mg/kg feed): 102%
Shanks Chroma C*ab Value (trial MC-24/99, 30 mg/kg feed): 65
Shanks Color Hue h*ab % of Controls (trial MC-24/99, 30 mg/kg feed): 98%
Shanks Color Hue h*ab Value (trial MC-24/99, 30 mg/kg feed): 82
Shanks Visual Classification (trial MC-24/99, 30 mg/kg feed): ++
Skin Chroma C*ab % of Controls (trial MC-24/99, 30 mg/kg feed): 105%
Skin Chroma C*ab Value (trial MC-24/99, 30 mg/kg feed): 38
Skin Color Hue h*ab % of Controls (trial MC-24/99, 30 mg/kg feed): 97%
Skin Color Hue h*ab Value (trial MC-24/99, 30 mg/kg feed): 76
chroma C*a*b* values in the skin and in the shanks: substantially enhanced
color hue h*a*b* in the skin and in the shanks: not significantly changed
effectiveness in terms of concentration in the skin, and color intensity (chroma C*a*b*) in the skin and shanks: significantly more effective

CC1=C(/C=C/C(C)=C/C=C/C(C)=C/C=C/C=C(C)/C=C/C=C(\C)C(=O)OC(C)C)C(C)(C)CCC1 [compound (17), isopropyl beta-apo-8′-carotenoate]
Shanks Chroma C*ab % of Controls (average over doses, Table 5): 115%
Shanks Color Hue h*ab % of Controls (average over doses, Table 5): 99%
Skin Chroma C*ab % of Controls (average over doses, Table 5): 113%
Skin Color Hue h*ab % of Controls (average over doses, Table 5): 102%
Shanks Chroma C*ab % of Controls [1]: 97%
Shanks Chroma C*ab Value [1]: 70
Shanks Color Hue h*ab % of Controls [1]: 99%
Shanks Color Hue h*ab Value [1]: 84
Shanks Visual Classification [1]: (+)
Skin Chroma C*ab % of Controls [1]: 116%
Skin Chroma C*ab Value [1]: 29
Skin Color Hue h*ab % of Controls [1]: 105%
Skin Color Hue h*ab Value [1]: 77
Skin Visual Classification [1]: (+)
Shanks Chroma C*ab % of Controls (trial MC-11/99, 20 mg/kg feed): 125%
Shanks Chroma C*ab Value (trial MC-11/99, 20 mg/kg feed): 59
Shanks Color Hue h*ab % of Controls (trial MC-11/99, 20 mg/kg feed): 103%
Shanks Color Hue h*ab Value (trial MC-11/99, 20 mg/kg feed): 87
Shanks Visual Classification (trial MC-11/99, 20 mg/kg feed): +
Skin Chroma C*ab % of Controls (trial MC-11/99, 20 mg/kg feed): 106%
Skin Chroma C*ab Value (trial MC-11/99, 20 mg/kg feed): 33
Skin Color Hue h*ab % of Controls (trial MC-11/99, 20 mg/kg feed): 100%
Skin Color Hue h*ab Value (trial MC-11/99, 20 mg/kg feed): 78
Skin Visual Classification (trial MC-11/99, 20 mg/kg feed): +
Shanks Chroma C*ab % of Controls (trial MC-11/99, 30 mg/kg feed): 108%
Shanks Chroma C*ab Value (trial MC-11/99, 30 mg/kg feed): 65
Shanks Color Hue h*ab % of Controls (trial MC-11/99, 30 mg/kg feed): 97%
Shanks Color Hue h*ab Value (trial MC-11/99, 30 mg/kg feed): 83
Shanks Visual Classification (trial MC-11/99, 30 mg/kg feed): +
Skin Chroma C*ab % of Controls (trial MC-11/99, 30 mg/kg feed): 119%
Skin Chroma C*ab Value (trial MC-11/99, 30 mg/kg feed): 40
Skin Color Hue h*ab % of Controls (trial MC-11/99, 30 mg/kg feed): 102%
Skin Color Hue h*ab Value (trial MC-11/99, 30 mg/kg feed): 79
Skin Visual Classification (trial MC-11/99, 30 mg/kg feed): +
Shanks Chroma C*ab % of Controls (trial MC-11/99, 45 mg/kg feed): 108%
Shanks Chroma C*ab Value (trial MC-11/99, 45 mg/kg feed): 71
Shanks Color Hue h*ab % of Controls (trial MC-11/99, 45 mg/kg feed): 101%
Shanks Color Hue h*ab Value (trial MC-11/99, 45 mg/kg feed): 84
Shanks Visual Classification (trial MC-11/99, 45 mg/kg feed): ++(o)
Skin Chroma C*ab % of Controls (trial MC-11/99, 45 mg/kg feed): 105%
Skin Chroma C*ab Value (trial MC-11/99, 45 mg/kg feed): 44
Skin Color Hue h*ab % of Controls (trial MC-11/99, 45 mg/kg feed): 103%
Skin Color Hue h*ab Value (trial MC-11/99, 45 mg/kg feed): 79
Skin Visual Classification (trial MC-11/99, 45 mg/kg feed): ++
Shanks Chroma C*ab % of Controls (trial MC-24/98, 30 mg/kg feed): 137%
Shanks Chroma C*ab Value (trial MC-24/98, 30 mg/kg feed): 71
Shanks Color Hue h*ab % of Controls (trial MC-24/98, 30 mg/kg feed): 93%
Shanks Color Hue h*ab Value (trial MC-24/98, 30 mg/kg feed): 80
Shanks Visual Classification (trial MC-24/98, 30 mg/kg feed): +
Skin Chroma C*ab % of Controls (trial MC-24/98, 30 mg/kg feed): 119%
Skin Chroma C*ab Value (trial MC-24/98, 30 mg/kg feed): 39
Skin Color Hue h*ab % of Controls (trial MC-24/98, 30 mg/kg feed): 102%
Skin Color Hue h*ab Value (trial MC-24/98, 30 mg/kg feed): 82
Skin Visual Classification (trial MC-24/98, 30 mg/kg feed): +
chroma C*a*b* values in the skin and in the shanks: substantially enhanced
color hue h*a*b* in the skin and in the shanks: not significantly changed
effectiveness in terms of concentration in the skin, and color intensity (chroma C*a*b*) in the skin and shanks: significantly more effective
